What all share (assay type): functional
Test [1] relates to Staphylococcus aureus. Kind of test: Antibacterial activity against methicillin resistant Staphylococcus aureus ATCC 33591 after 16 to 20 hrs by CLSI method.
Test [2] concerns Staphylococcus epidermidis. Kind of test: Antibacterial activity against methicillin resistant Staphylococcus epidermidis ATCC 51625 after 16 to 20 hrs by CLSI method.
For test [3], the system named is Staphylococcus aureus. Kind of test: Antibacterial activity against methicillin resistant Staphylococcus aureus ATCC 43300 after 16 to 20 hrs by CLSI method.
The subject of test [4] is Staphylococcus aureus. Description: Antibacterial activity against methicillin resistant Staphylococcus aureus BAA-44 after 16 to 20 hrs by CLSI method.
Test [5] deals with Staphylococcus aureus. Kind of test: Antibacterial activity against linezolid/methicillin resistant Staphylococcus aureus NR 45926 after 16 to 20 hrs by CLSI method.
The test system of test [6] is Staphylococcus aureus. Description: Antibacterial activity against linezolid/methicillin resistant Staphylococcus aureus NR 45924 after 16 to 20 hrs by CLSI method.
The subject of test [7] is Staphylococcus aureus. Description: Antibacterial activity against methicillin resistant Staphylococcus aureus NR 45913 after 16 to 20 hrs by CLSI method.
In test [8] the test system is Staphylococcus aureus. Kind of test: Antibacterial activity against methicillin resistant Staphylococcus aureus NR 45898 after 16 to 20 hrs by CLSI method.
Test [9] deals with Staphylococcus epidermidis. Description: Antibacterial activity against methicillin resistant Staphylococcus epidermidis NR 46386 after 16 to 20 hrs by CLSI method.
Test [10] relates to Staphylococcus aureus. Description: Antibacterial activity against methicillin resistant Staphylococcus aureus BAA-1685 after 16 to 20 hrs by CLSI method.
Test [11] concerns Staphylococcus aureus. Description: Antibacterial activity against methicillin resistant Staphylococcus aureus NR 45906 after 16 to 20 hrs by CLSI method.
In the next test the test system is Bacillus cereus. Kind of test: Antibacterial activity against Bacillus cereus.

Values after ≈ are worked out from the molar mass of the structure shown.

Regarding `O=C1C(O)=C(c2ccc(F)cc2)C2CCCN12` (racemic), the minimal inhibitory concentration (MIC) (as a rule, the lowest concentration that inhibits growth of the organism) against Staphylococcus aureus [1] is more than 128 µg/mL.
For `C#CCN1C(=O)C(O)=C(c2ccc(C(F)(F)F)cc2)C1CC` (racemic), inhibition of growth in the test with Staphylococcus aureus [1] (MIC) required 32 µg/mL (≈ 103 µM).
Take `CCCCCCN1C(=O)C(O)=C(c2ccc(C(F)(F)F)cc2)C1CCCC` (racemic): in the test with Staphylococcus aureus [1], it took 32 µg/mL (≈ 83.5 µM) to inhibit growth (MIC).
The compound `COC1=C(c2ccc(C(F)(F)F)cc2)C2CCCCN2C1=O` (stereo not drawn) registered a minimal inhibitory concentration (MIC) in the test with Staphylococcus aureus [1] of more than 128 µg/mL.
In turn, `CCC1C(c2ccc(C(F)(F)F)cc2)=C(O)C(=O)N1C(C)c1ccccc1` (stereo not drawn) returned a minimum inhibitory concentration (MIC) with Staphylococcus aureus [1] of 32 µg/mL (≈ 85.2 µM).
The compound `O=C1C(O)=C(c2ccc(Cl)cc2)C2CCCN12` (racemic) returned an MIC against Staphylococcus aureus [1] of more than 128 µg/mL.
`CCCCCC1=C(O)C(=O)N2CCCC12` (stereo not drawn): the MIC in the test with Staphylococcus aureus [1] was more than 128 µg/mL.
For `C=CCN1C(=O)C(O)=C(c2ccc(C(F)(F)F)cc2)C1CC` (racemic), in the test with Staphylococcus aureus [1], the MIC stood at 32 µg/mL (≈ 103 µM).
Turning to `CCCCCCN1C(=O)C(O)=C(c2ccc(C(F)(F)F)cc2)C1CC` (racemic), the MIC worked out at 4 µg/mL (≈ 11.3 µM) in [2]; 64 µg/mL (≈ 180 µM) against Staphylococcus aureus [3]; 64 µg/mL (≈ 180 µM) against Staphylococcus aureus [4]; 32 µg/mL (≈ 90 µM) in the test with Staphylococcus aureus [5]; 64 µg/mL (≈ 180 µM) in the test on Staphylococcus aureus [6]; 32 µg/mL (≈ 90 µM) with Staphylococcus aureus [7]. Moreover, the minimal inhibitory concentration (MIC) with Staphylococcus aureus [8] turned out to be 32 µg/mL (≈ 90 µM); in test [9] it was 8 µg/mL (≈ 22.5 µM); in the test with Staphylococcus aureus [10] it was 64 µg/mL (≈ 180 µM); against Staphylococcus aureus [11], 4 µg/mL (≈ 11.3 µM); against Staphylococcus aureus [1], 2 µg/mL (≈ 5.63 µM).
Regarding `O=C1C(O)=C(c2ccc(C(F)(F)F)cc2)C2CCCN12` (stereo not drawn), the MIC against Staphylococcus aureus [1] is 128 µg/mL (≈ 452 µM).
`CCC1C(c2ccc(C(F)(F)F)cc2)=C(O)C(=O)N1C` (racemic): the lowest concentration to inhibit growth with Staphylococcus aureus [1] (MIC) was 64 µg/mL (≈ 224 µM).
In turn, `O=C1C(O)=C(c2ccc(Br)cc2)C2CCCCN12` (stereo not drawn) returned a minimum inhibitory concentration (MIC) against Staphylococcus aureus [1] of 32 µg/mL (≈ 104 µM).
The compound `CCC1C(c2ccc(C(F)(F)F)cc2)=C(O)C(=O)N1Cc1ccc(-c2ccccc2)cc1` (racemic) came in with a minimal inhibitory concentration (MIC) against Staphylococcus aureus [1] of 64 µg/mL (≈ 146 µM).
As to `C=CCC1=C(O)C(=O)N2CCCC12` (stereo not drawn), in the test on Staphylococcus aureus [1], the MIC is more than 128 µg/mL.
Compound `O=C1C(O)=C(c2ccc(Br)cc2)C2CCCN12` (stereo not drawn) came in with a minimum inhibitory concentration (MIC) in the test on Staphylococcus aureus [1] of 128 µg/mL (≈ 435 µM).
`CCCCCCN1C(=O)C(O)=C(c2ccc(C(F)(F)F)cc2)C1CCc1ccccc1` (racemic) registered a minimal inhibitory concentration (MIC) against Staphylococcus aureus [1] of 64 µg/mL (≈ 148 µM).
With `CCC1C(c2ccc(C(F)(F)F)cc2)=C(O)C(=O)N1Cc1ccc(C(F)(F)F)cc1` (racemic), in the test with Staphylococcus aureus [1], 32 µg/mL (≈ 74.5 µM) was the least that counted as inhibitory (MIC).
Regarding `O=C1C(O)=C(c2ccccc2)C2CCCN12` (stereo not drawn), the minimal inhibitory concentration (MIC) is 50 to 100 µg/mL (≈ 232 to 465 µM) against Bacillus cereus and more than 128 µg/mL in the test with Staphylococcus aureus [1].
Consider `O=C1C(O)=C(c2ccccc2[N+](=O)[O-])C2CCCN12` (stereo not drawn), for which the MIC with Staphylococcus aureus [1] was more than 128 µg/mL.
Compound `CCCCCCN1C(=O)C(O)=C(c2ccc(C(F)(F)F)cc2)C1c1ccccc1` (racemic) displayed an MIC against Staphylococcus aureus [1] of 32 µg/mL (≈ 79.3 µM).
`O=C1C(O)=C(c2cccs2)C2CCCCN12` (stereo not drawn) gave an MIC in the test with Staphylococcus aureus [1] of 16 µg/mL (≈ 68 µM).
Regarding `CCC1C(c2ccc(C(F)(F)F)cc2)=C(O)C(=O)N1C1CCCCC1` (racemic), the MIC in test [2] came to 16 µg/mL (≈ 45.3 µM); in the test with Staphylococcus aureus [3], 64 µg/mL (≈ 181 µM); with Staphylococcus aureus [4] it was 32 µg/mL (≈ 90.6 µM); against Staphylococcus aureus [5], 32 µg/mL (≈ 90.6 µM); with Staphylococcus aureus [6], 32 µg/mL (≈ 90.6 µM); in the test with Staphylococcus aureus [7], 8 µg/mL (≈ 22.6 µM). In addition, the MIC with Staphylococcus aureus [8] worked out at 8 µg/mL (≈ 22.6 µM); in test [9], 2 µg/mL (≈ 5.66 µM); against Staphylococcus aureus [10], 32 µg/mL (≈ 90.6 µM); in the test on Staphylococcus aureus [11], 2 µg/mL (≈ 5.66 µM); against Staphylococcus aureus [1] it was 8 µg/mL (≈ 22.6 µM).
Regarding `CCC1C(c2ccc(C(F)(F)F)cc2)=C(O)C(=O)N1CCCCO` (racemic), the MIC against Staphylococcus aureus [1] was more than 128 µg/mL.
In the case of `O=C1C(O)=C(c2ccc(Cl)cc2)C2CCCCN12` (racemic), the MIC against Staphylococcus aureus [1] is more than 128 µg/mL.
As for `COc1ccc(C2=C(O)C(=O)N3CCCC23)cc1` (stereo not drawn), in the test on Staphylococcus aureus [1], the minimal inhibitory concentration (MIC) is more than 128 µg/mL.
Turning to `CC[C@H]1OC(=O)[C@H](C)[C@@H](O[C@H]2C[C@@](C)(OC)[C@@H](O)[C@H](C)O2)[C@H](C)[C@@H](O[C@@H]2O[C@H](C)C[C@H](N(C)C)[C@H]2O)[C@](C)(O)C[C@@H](C)C(=O)[C@H](C)[C@@H](O)[C@]1(C)O` [ERYTHROMYCIN], the minimum inhibitory concentration (MIC) in the test with Staphylococcus aureus [5] and in the test with Staphylococcus aureus [6] was 0.5 µg/mL (≈ 0.681 µM) each time.
On to `CCC1NC(=O)C(O)=C1c1ccc(C(F)(F)F)cc1` (racemic), for which the lowest concentration to inhibit growth with Staphylococcus aureus [1] (MIC) was 128 µg/mL (≈ 472 µM).
Compound `O=C1C(O)=C(c2ccc(C(F)(F)F)cc2)C2CCCCN12` (stereo not drawn) showed an MIC against Staphylococcus aureus [1] of 32 µg/mL (≈ 108 µM).
With `CC1CCN2C(=O)C(O)=C(c3ccc(C(F)(F)F)cc3)C2C1` (racemic), in the test on Staphylococcus aureus [1], it took 128 µg/mL (≈ 411 µM) to inhibit growth (MIC).
On the same count and under the same terms, then `CCC1C(c2ccc(C(F)(F)F)cc2)=C(O)C(=O)N1Cc1ccncc1` (racemic), with 64 µg/mL (≈ 177 µM).
As for `O=C1C(O)=C(c2ccccc2)C2CCCCN12` (stereo not drawn), the MIC in the test on Staphylococcus aureus [1] was more than 128 µg/mL.
In the case of `Cc1ccc(C2=C(O)C(=O)N3CCCC23)cc1` (racemic), inhibition of growth in the test on Staphylococcus aureus [1] (MIC) required 128 µg/mL (≈ 558 µM).
As for `CCC1C(c2ccc(C(F)(F)F)cc2)=C(O)C(=O)N1Cc1ccccc1` (racemic), the MIC in [2] was 8 µg/mL (≈ 22.1 µM); with Staphylococcus aureus [3], 32 µg/mL (≈ 88.6 µM); against Staphylococcus aureus [4], 64 µg/mL (≈ 177 µM); against Staphylococcus aureus [5], 16 µg/mL (≈ 44.3 µM); against Staphylococcus aureus [6], 32 µg/mL (≈ 88.6 µM); with Staphylococcus aureus [7], 16 µg/mL (≈ 44.3 µM). The MIC against Staphylococcus aureus [8] was 16 µg/mL (≈ 44.3 µM); in test [9], 8 µg/mL (≈ 22.1 µM); in the test on Staphylococcus aureus [10] it was 32 µg/mL (≈ 88.6 µM); against Staphylococcus aureus [11] it was 8 µg/mL (≈ 22.1 µM); against Staphylococcus aureus [1], 8 µg/mL (≈ 22.1 µM).
`Cc1ccc(C2=C(O)C(=O)N3CCCCC23)cc1` (racemic): the minimal inhibitory concentration (MIC) in the test with Staphylococcus aureus [1] was more than 128 µg/mL.
As for `CCC1C(c2ccc(C(F)(F)F)cc2)=C(O)C(=O)N1Cc1ccc(OC)cc1OC` (racemic), the minimal inhibitory concentration (MIC) with Staphylococcus aureus [1] turned out to be 32 µg/mL (≈ 75.9 µM).
On to `COc1ccc(C2=C(O)C(=O)N3CCCCC23)cc1` (stereo not drawn), for which the MIC in the test with Staphylococcus aureus [1] was more than 128 µg/mL.
In the case of `CCC1C(c2ccc(C(F)(F)F)cc2)=C(O)C(=O)N1c1ccccc1` (racemic), the MIC in [2] amounted to 8 µg/mL (≈ 23 µM); against Staphylococcus aureus [3] it was 64 µg/mL (≈ 184 µM); with Staphylococcus aureus [4] it was 32 µg/mL (≈ 92.1 µM); against Staphylococcus aureus [5] it was 8 µg/mL (≈ 23 µM); in the test with Staphylococcus aureus [6], 16 µg/mL (≈ 46.1 µM); with Staphylococcus aureus [7] it was 8 µg/mL (≈ 23 µM). The MIC came out at 8 µg/mL (≈ 23 µM) in the test with Staphylococcus aureus [8]; 4 µg/mL (≈ 11.5 µM) in test [9]; 32 µg/mL (≈ 92.1 µM) against Staphylococcus aureus [10]; 8 µg/mL (≈ 23 µM) against Staphylococcus aureus [11]; 8 µg/mL (≈ 23 µM) against Staphylococcus aureus [1].
`O=C1C(O)=C(c2cccs2)C2CCCN12` (stereo not drawn) showed a minimal inhibitory concentration (MIC) with Staphylococcus aureus [1] of more than 128 µg/mL.
On the same count and under the same terms, the value for `O=C1C(O)=C(c2ccc(C(F)(F)F)cc2)C2CCCCCN12` (racemic) was 32 µg/mL (≈ 103 µM).
On to `O=C1C(O)=C(c2ccc(O)cc2)C2CCCN12` (stereo not drawn), for which the minimal inhibitory concentration (MIC) against Bacillus cereus was 50 to 100 µg/mL (≈ 216 to 432 µM); in the test on Staphylococcus aureus [1], more than 128 µg/mL.
In the test on Staphylococcus aureus [1], `O=C1C(O)=C(c2ccc(F)cc2)C2CCCCN12` (racemic) showed an MIC of more than 128 µg/mL.
Turning to `CC(=O)NC[C@H]1CN(c2ccc(N3CCOCC3)c(F)c2)C(=O)O1` [LINEZOLID], the MIC in [2] worked out at 0.25 µg/mL (≈ 0.741 µM); against Staphylococcus aureus [3] it was 1 µg/mL (≈ 2.96 µM); against Staphylococcus aureus [4], 1 µg/mL (≈ 2.96 µM); with Staphylococcus aureus [7] it was 0.5 µg/mL (≈ 1.48 µM); with Staphylococcus aureus [8] it was 0.5 µg/mL (≈ 1.48 µM); in test [9] it was 0.25 µg/mL (≈ 0.741 µM). Moreover, the MIC with Staphylococcus aureus [10] and in the test on Staphylococcus aureus [1] was 1 µg/mL (≈ 2.96 µM) in each case.
In the test on Staphylococcus aureus [1], `CCC1C(c2ccc(C(F)(F)F)cc2)=C(O)C(=O)N1CC(C)C` (racemic) came in with an MIC of 16 µg/mL (≈ 48.9 µM).

Values taken from ChEMBL document CHEMBL4229341, “3-Hydroxy-1,5-dihydro-2H-pyrrol-2-ones as novel antibacterial scaffolds against methicillin-resistant Staphylococcus aureus” (2018).
